molecular target: T1, Recombinant Human ENPP-2/Autotaxin (Homo sapiens, UniProt Q13822); assay: LysoPLD activity measurement (autotaxin enzyme inhibition, choline release, TOOS reagent); type: biochemical; conditions: LysoPLD inhibitory activity; substrate 14:0 LysoPC; absorbance at 555 nm
T1 construct: purchased R&D systems 5255-EN
In short: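 Autotaxin lysoPLD activity was read as choline released from 14:0 LysoPC, detected by TOOS reagent absorbance. Compound was preincubated 30 min, then substrate diluted to 300 μM was added and the reaction ran 90 minutes at 37° C. Controls contained 1% DMSO.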

Compound | IC50 [nM]
CN(C)S(=O)(=O)c1ccc(-n2c(=O)n(C3(c4cccc(C(=O)O)c4)CC3)c3ccc(Cl)cc32)cc1 [Example 210, 3-(1-(5-chloro-3-(4-(N,N-dimethylsulfamoyl)phenyl)-2-oxo-2,3-dihydro-1H-benzo[d]imidazol-1-yl)cyclopropyl)benzoic acid] | < 10
O=C(O)c1cccc(C2(n3c(=O)n(-c4ccc(S(=O)(=O)NC5CC5)cc4)c4cc(Cl)ccc43)CC2)c1 [Example 211, 3-(1-(5-chloro-3-(4-(N-cyclopropylsulfamoyl)phenyl)-2-oxo-2,3-dihydro-1H-benzo[d]imidazol-1-yl)cyclopropyl)benzoic acid] | < 10
O=C(O)c1cccc(C2(n3c(=O)n(-c4ccc(S(=O)(=O)N5CCOCC5)cc4)c4cc(Cl)ccc43)CC2)c1 [Example 212, 3-(1-(5-chloro-3-(4-(morpholinosulfonyl)phenyl)-2-oxo-2,3-dihydro-1H-benzo[d]imidazol-1-yl)cyclopropyl)benzoic acid] | < 10
O=C(O)c1cccc(C2(n3c(=O)n(-c4ccc(S(=O)(=O)NCC5CCC5)cc4)c4cc(Cl)ccc43)CC2)c1 [Example 213, 3-(1-(5-chloro-3-(4-(N-(cyclobutylmethyl)sulfamoyl)phenyl)-2-oxo-2,3-dihydro-1H-benzo[d]imidazol-1-yl)cyclopropyl)benzoic acid] | 10 to 100
O=C(O)c1cccc(C2(n3c(=O)n(-c4ccc(S(=O)(=O)N5CCCCC5)cc4)c4cc(Cl)ccc43)CC2)c1 [Example 214] | < 10
O=C(O)c1cccc(C2(n3c(=O)n(-c4ccc(S(=O)(=O)N5CCCC5)cc4)c4cc(Cl)ccc43)CC2)c1 [Example 215, 3-(1-(5-chloro-2-oxo-3-(4-(pyrrolidin-1-ylsulfonyl)phenyl)-2,3-dihydro-1H-benzo[d]imidazol-1-yl)cyclopropyl)benzoic acid] | < 10
CC(C)(O)Cc1ccc(-n2c(=O)n(C3(c4cccc(C(=O)O)c4)CC3)c3ccc(Cl)cc32)cc1 [Example 216, 3-(1-(5-chloro-3-(4-(2-hydroxy-2-methylpropyl)phenyl)-2-oxo-2,3-dihydro-1H-benzo[d]imidazol-1-yl)cyclopropyl)benzoic acid] | < 10
CC(C)(F)Cc1ccc(-n2c(=O)n(C3(c4cccc(C(=O)O)c4)CC3)c3ccc(Cl)cc32)cc1 [Example 217, 3-(1-(5-chloro-3-(4-(2-fluoro-2-methylpropyl)phenyl)-2-oxo-2,3-dihydro-1H-benzo[d]imidazol-1-yl)cyclopropyl)benzoic acid] | 10 to 100
CC(C)(CO)c1ccc(-n2c(=O)n(C3(c4cccc(C(=O)O)c4)CC3)c3ccc(Cl)cc32)cc1 [Example 218, 3-(1-(5-chloro-3-(4-(1-hydroxy-2-methylpropan-2-yl)phenyl)-2-oxo-2,3-dihydro-1H-benzo[d]imidazol-1-yl)cyclopropyl)benzoic acid] | < 10
CC(C)(CF)c1ccc(-n2c(=O)n(C3(c4cccc(C(=O)O)c4)CC3)c3ccc(Cl)cc32)cc1 [Example 219, 3-(1-(5-chloro-3-(4-(1-fluoro-2-methylpropan-2-yl)phenyl)-2-oxo-2,3-dihydro-1H-benzo[d]imidazol-1-yl)cyclopropyl)benzoic acid] | < 10
O=C(O)c1cccc(C2(n3c(=O)n(-c4ccc(C5CCOCC5)cc4)c4cc(Cl)cnc43)CC2)c1 [Example 220, 3-(1-(6-chloro-2-oxo-1-(4-(tetrahydro-2H-pyran-4-yl)phenyl)-1,2-dihydro-3H-imidazo[4,5-b]pyridin-3-yl)cyclopropyl)benzoic acid] | < 10
CN(C)c1ccc(-n2c(=O)n(C3(c4cccc(C(=O)O)c4)CC3)c3ncc(Cl)cc32)cc1 [Example 221, 3-(1-(6-chloro-1-(4-(dimethylamino)phenyl)-2-oxo-1,2-dihydro-3H-imidazo[4,5-b]pyridin-3-yl)cyclopropyl)benzoic acid] | < 10
